The test has as its target T1, HIV-integrase (Human immunodeficiency virus type 1 group M subtype B, UniProt P12497).
T1 construct: Recombinant integrase (0.26 ng) was incubated with the beads
The experiment in a line: HIV-Integrase Inhibition Activity (SPA bead strand-transfer assay). The test is classed as biochemical. The note with it: Table 1; read-out: Activity (HIV-integrase inhibition, IC50 class). In outline:
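Biotin-labelled substrate DNA (5 pmole) bound to streptavidin SPA beads, preloaded with recombinant integrase (0.26 ng) for 90 min at 37° C, then washed. Inhibitors and 0.1 fmol P33-labelled target DNA added; reaction stopped with 10 mM EDTA. Integration read as scintillation CPM.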

SMILES strings stand for the structures.

What is called IC50 is the concentration that gives 50% inhibition. As to `CC1(C)OCCn2c1nc(C(=O)NCc1ccccc1Br)c(O)c2=O` [Example 147, Pyrimido[2,1-c][1,4]oxazine-2-carboxamide, N-[(2-bromophenyl)methyl]-4,6,7,9-tetrahydro-3-hydroxy-9,9-dimethyl-4-oxo-], the IC50 is 0.002 to 0.1 µM.

As to `CC1(C)OCCn2c1nc(C(=O)NCc1ccccc1-c1cccc3cccnc13)c(O)c2=O` [Example 148, Pyrimido[2,1-c][1,4]oxazine-2-carboxamide, 4,6,7,9-tetrahydro-3-hydroxy-9,9-dimethyl-4-oxo-N-[[2-(8-quinolinyl)phenyl]methyl]-], the IC50 lay in the range of 0.1 to 1 µM.

For `COc1ncc(-c2ccccc2CNC(=O)c2nc3n(c(=O)c2O)CCOC3(C)C)c(OC)n1` [Example 149, Pyrimido[2,1-c][1,4]oxazine-2-carboxamide, N-[[2-(2,4-dimethoxy-5-pyrimidinyl)phenyl]methyl]-4,6,7,9-tetrahydro-3-hydroxy-9,9-dimethyl-4-oxo-], the IC50 fell in the range of 0.002 to 0.1 µM.

With `CC1(C)OCCn2c1nc(C(=O)NCc1ccccc1-c1cccnc1)c(O)c2=O` [Example 150, Pyrimido[2,1-c][1,4]oxazine-2-carboxamide, 4,6,7,9-tetrahydro-3-hydroxy-9,9-dimethyl-4-oxo-N-[[2-(3-pyridinyl)phenyl]methyl]-], the IC50 is 0.002 to 0.1 µM.

`CC1(C)OCCn2c1nc(C(=O)NCc1ccccc1-c1ccc(F)nc1)c(O)c2=O` [Example 151]: the IC50 was in the range of 0.002 to 0.1 µM.

`COc1ncccc1-c1ccccc1CNC(=O)c1nc2n(c(=O)c1O)CCOC2(C)C` [Example 152, Pyrimido[2,1-c][1,4]oxazine-2-carboxamide, 4,6,7,9-tetrahydro-3-hydroxy-N-[[2-(2-methoxy-3-pyridinyl)phenyl]methyl]-9,9-dimethyl-4-oxo-]: the IC50 lay within 0.002 to 0.1 µM.

In the case of `COc1cncc(-c2ccccc2CNC(=O)c2nc3n(c(=O)c2O)CCOC3(C)C)c1` [Example 153, Pyrimido[2,1-c][1,4]oxazine-2-carboxamide, 4,6,7,9-tetrahydro-3-hydroxy-N-[[2-(5-methoxy-3-pyridinyl)phenyl]methyl]-9,9-dimethyl-4-oxo-], the IC50 lay within 0.002 to 0.1 µM.

For the molecule `COc1ccc(-c2ccccc2CNC(=O)c2nc3n(c(=O)c2O)CCOC3(C)C)c(OC)n1` [Example 154, Pyrimido[2,1-c][1,4]oxazine-2-carboxamide, N-[[2-(2,6-dimethoxy-3-pyridinyl)phenyl]methyl]-4,6,7,9-tetrahydro-3-hydroxy-9,9-dimethyl-4-oxo-], the IC50 was 0.002 to 0.1 µM.

Turning to `CC1(C)OCCn2c1nc(C(=O)NCc1ccccc1-c1cnn(Cc3ccccc3)c1)c(O)c2=O` [Example 155, Pyrimido[2,1-c][1,4]oxazine-2-carboxamide, 4,6,7,9-tetrahydro-3-hydroxy-9,9-dimethyl-4-oxo-N-[[2-[1-(phenylmethyl)-1H-pyrazol-4-yl]phenyl]methyl]-], the IC50 was in the range of 0.002 to 0.1 µM.

For the molecule `CC1(C)OCCn2c1nc(C(=O)NCc1ccccc1-c1ccc(N3CCOCC3)nc1)c(O)c2=O` [Example 156, Pyrimido[2,1-c][1,4]oxazine-2-carboxamide, 4,6,7,9-tetrahydro-3-hydroxy-9,9-dimethyl-N-[[2-[6-(4-morpholinyl)-3-pyridinyl]phenyl]methyl]-4-oxo-], the IC50 was in the range of 0.002 to 0.1 µM.

For `CC1(C)OCCn2c1nc(C(=O)NCc1ccccc1-c1ccc(N)nc1)c(O)c2=O` [Example 157, Pyrimido[2,1-c][1,4]oxazine-2-carboxamide, N-[[2-(6-amino-3-pyridinyl)phenyl]methyl]-4,6,7,9-tetrahydro-3-hydroxy-9,9-dimethyl-4-oxo-], the IC50 was 0.002 to 0.1 µM.

With `CCCn1cc(-c2ccccc2CNC(=O)c2nc3n(c(=O)c2O)CCOC3(C)C)cn1` [Example 158, Pyrimido[2,1-c][1,4]oxazine-2-carboxamide, 4,6,7,9-tetrahydro-3-hydroxy-9,9-dimethyl-4-oxo-N-[[2-(1-propyl-1H-pyrazol-4-yl)phenyl]methyl]-], the IC50 lay within 0.002 to 0.1 µM.

In the case of `CN1CCN(c2cc(-c3ccccc3CNC(=O)c3nc4n(c(=O)c3O)CCOC4(C)C)ccn2)CC1` [Example 159, Pyrimido[2,1-c][1,4]oxazine-2-carboxamide, 4,6,7,9-tetrahydro-3-hydroxy-9,9-dimethyl-N-[[2-[2-(4-methyl-1-piperazinyl)-4-pyridinyl]phenyl]methyl]-4-oxo-], the IC50 fell in the range of 0.1 to 1 µM.

For the molecule `CC1(C)OCCn2c1nc(C(=O)NCc1ccccc1-c1ccccc1)c(O)c2=O` [Example 160, Pyrimido [2,1-c][1,4]oxazine-2-carboxamide, N-([1,1′-biphenyl]-2-ylmethyl)-4,6,7,9-tetrahydro-3-hydroxy-9,9-dimethyl-4-oxo-], the IC50 is 0.002 to 0.1 µM.

Consider `COc1cc(Cl)ccc1-c1ccccc1CNC(=O)c1nc2n(c(=O)c1O)CCOC2(C)C` [Example 161, Pyrimido[2,1-c][1,4]oxazine-2-carboxamide, N-[(4′-chloro-2′-methoxy[1,1′-biphenyl]-2-yl)methyl]-4,6,7,9-tetrahydro-3-hydroxy-9,9-dimethyl-4-oxo-], for which the IC50 lay within 0.002 to 0.1 µM.

On to `Cc1ccc(-c2ccccc2CNC(=O)c2nc3n(c(=O)c2O)CCOC3(C)C)cc1` [Example 162, Pyrimido[2,1-c][1,4]oxazine-2-carboxamide, 4,6,7,9-tetrahydro-3-hydroxy-9,9-dimethyl-N-[(4′-methyl[1,1′-biphenyl]-2-yl)methyl]-4-oxo-], for which the IC50 lay within 0.002 to 0.1 µM.

With `Cc1cccc(-c2ccccc2CNC(=O)c2nc3n(c(=O)c2O)CCOC3(C)C)c1` [Example 163, Pyrimido[2,1-c][1,4]oxazine-2-carboxamide, 4,6,7,9-tetrahydro-3-hydroxy-9,9-dimethyl-N-[(3′-methyl[1,1′-biphenyl]-2-yl)methyl]-4-oxo-], the IC50 lay in the range of 0.002 to 0.1 µM.

`COc1cccc(-c2ccccc2CNC(=O)c2nc3n(c(=O)c2O)CCOC3(C)C)c1` [Example 164, Pyrimido[2,1-c][1,4]oxazine-2-carboxamide, 4,6,7,9-tetrahydro-3-hydroxy-N-[(3′-methoxy[1,1′-biphenyl]-2-yl)methyl]-9,9-dimethyl-4-oxo-]: the IC50 fell in the range of 0.002 to 0.1 µM.

As to `CC1(C)OCCn2c1nc(C(=O)NCc1ccccc1-c1cccc(O)c1)c(O)c2=O` [Example 165, Pyrimido[2,1-c][1,4]oxazine-2-carboxamide, 4,6,7,9-tetrahydro-3-hydroxy-N-[(3′-hydroxy[1,1′-biphenyl]-2-yl)methyl]-9,9-dimethyl-4-oxo-], the IC50 lay within 0.002 to 0.1 µM.

Consider `CC1(C)OCCn2c1nc(C(=O)NCc1ccccc1-c1ccc(C#N)cc1)c(O)c2=O` [Example 166, Pyrimido[2,1-c][1,4]oxazine-2-carboxamide, N-[(4′-cyano[1,1′-biphenyl]-2-yl)methyl]-4,6,7,9-tetrahydro-3-hydroxy-9,9-dimethyl-4-oxo-], for which the IC50 fell in the range of 0.1 to 1 µM.

Consider `CC1(C)OCCn2c1nc(C(=O)NCc1ccccc1-c1cccc(C#N)c1)c(O)c2=O` [Example 167, Pyrimido[2,1-c][1,4]oxazine-2-carboxamide, N-[(3′-cyano[1,1′-biphenyl]-2-yl)methyl]-4,6,7,9-tetrahydro-3-hydroxy-9,9-dimethyl-4-oxo-], for which the IC50 is 0.002 to 0.1 µM.

Regarding `CC1(C)OCCn2c1nc(C(=O)NCc1ccccc1-c1ccc(N3CCOCC3)cc1)c(O)c2=O` [Example 168, Pyrimido[2,1-c][1,4]oxazine-2-carboxamide, 4,6,7,9-tetrahydro-3-hydroxy-9,9-dimethyl-N-[[4′-(4-morpholinyl)[1,1′-biphenyl]-2-yl]methyl]-4-oxo-], the IC50 is 0.002 to 0.1 µM.

The values above are taken from patent US7491819B1 (priority 2004, dated 2009).
